For one assay, the target named is JAK2 (Homo sapiens, UniProt O60674). Nature of the assay: Caliper Mobility Shift Assay, kinase inhibition. The class given is biochemical. The conditions noted are these: ATP by Km value.
Assay [1] deals with rat with rheumatoid arthritis. Nature of the assay: Collagen-induced rheumatoid arthritis model, arthritis score. The note with it: DBA/1J rat, bovine Type II collagen/CFA model, intragastric administration, scored 2 weeks after administration, 1-4 scoring method. The class given is in vivo. The procedure: For the function of the compound inhibiting rheumatoid arthritis, selecting DBA/1J rat, carrying out subcutaneous injection after complete emulsion of 50 ug of bovine Type II collagen and isometric complete Freund's adjuvant (CFA). Strengthening immunization once 21 days after adequate emulsion of 50 ug of same antigen and incomplete Freund's adjuvant (IFA). Starting observation and recording from the 45th day. Using 1-4 scoring method: 1 score, normal; 2 scores, swelling of one joint; 3 scores, swelling of more than one joint but not all joints; 4 scores, severe swelling or stiffness of the whole claw. Adding scores of all claws to obtain the total score of arthritis in rat. Showing successful model establishment when the total joint score of the rat is more than 1. After successfully establishing the model of rat with rheumatoid arthritis, using the compound of the invention to feed the rat by intragastric administration and scoring arthritis of the rat 2 weeks after administration.

For a further assay, the system named is Jurkat cells. Kind of assay: Inhibition of cell proliferation of human lymphocytoma (CCK-8). The class given is cell-based. The note with it: 48 h, CCK-8, 450 nm absorption. On the procedure:
Spreading the Jurkat cells out for in-vitro cultivation on a 96-well plate with 1500 cells in each well, making the highest concentration of the compound be 50 μM in the cultivation system, and diluting the drug concentration according to 10-time step dilution.

A further assay addresses T1, JAK3 (Homo sapiens, UniProt P52333).
T1 sequence (P52333 1-1124): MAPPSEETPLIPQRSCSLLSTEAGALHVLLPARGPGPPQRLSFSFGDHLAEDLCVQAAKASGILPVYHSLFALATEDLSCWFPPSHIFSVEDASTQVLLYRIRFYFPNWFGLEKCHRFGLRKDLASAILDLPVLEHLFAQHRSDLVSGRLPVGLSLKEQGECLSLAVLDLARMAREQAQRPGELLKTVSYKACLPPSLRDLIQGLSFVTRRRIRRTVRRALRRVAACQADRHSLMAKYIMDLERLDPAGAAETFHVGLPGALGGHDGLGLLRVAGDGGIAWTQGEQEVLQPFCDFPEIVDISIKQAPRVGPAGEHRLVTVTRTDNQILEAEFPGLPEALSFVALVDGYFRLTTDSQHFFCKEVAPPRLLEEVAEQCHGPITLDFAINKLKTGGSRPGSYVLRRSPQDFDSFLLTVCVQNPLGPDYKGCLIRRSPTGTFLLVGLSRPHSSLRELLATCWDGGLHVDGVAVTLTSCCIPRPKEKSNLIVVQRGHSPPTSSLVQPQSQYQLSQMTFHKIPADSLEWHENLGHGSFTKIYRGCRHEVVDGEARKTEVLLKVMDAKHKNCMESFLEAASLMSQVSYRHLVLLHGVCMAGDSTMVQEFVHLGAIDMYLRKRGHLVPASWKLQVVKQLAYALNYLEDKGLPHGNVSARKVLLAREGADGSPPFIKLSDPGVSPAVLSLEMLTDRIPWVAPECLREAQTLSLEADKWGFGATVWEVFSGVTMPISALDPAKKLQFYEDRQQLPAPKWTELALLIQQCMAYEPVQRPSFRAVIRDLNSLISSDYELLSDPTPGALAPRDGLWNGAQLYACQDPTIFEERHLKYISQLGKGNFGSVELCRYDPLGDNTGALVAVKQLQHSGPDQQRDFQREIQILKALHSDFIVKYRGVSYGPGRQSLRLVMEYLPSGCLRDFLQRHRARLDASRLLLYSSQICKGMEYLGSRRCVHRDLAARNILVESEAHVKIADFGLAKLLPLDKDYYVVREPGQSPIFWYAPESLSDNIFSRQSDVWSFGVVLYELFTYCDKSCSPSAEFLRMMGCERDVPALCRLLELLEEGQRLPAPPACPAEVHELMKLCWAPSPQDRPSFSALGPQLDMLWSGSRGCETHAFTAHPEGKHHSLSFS
Kind of assay: Caliper Mobility Shift Assay, kinase inhibition. The conditions noted are these: ATP by Km value. The format is biochemical.

The subject of another assay is phosphorylated JAK1. Kind of assay: CTLL-2 cells, IL-2 stimulated, Western blot of phosphorylation. The format is cell-based. The conditions noted are these: Mus musculus, starved 6 h with compound, IL-2 150 U/mL 10 min, phosphorylated JAK1 by Western blot, read-out: IC50 g (nM) JAK1. The procedure: (§1) Incubating for 10 min and collecting cells. Adding cell lysis buffer for cell lysis. Collecting protein to perform WEST-Blot detection, detecting phosphorylated JAK1, the phosphorylation of JAK2 and the phosphorylated STAT5, and obtaining the IC50 value.
(A western blot detects proteins with antibodies after separation by electrophoresis.)

The test system of a further assay is phosphorylation of JAK2. The description is as above. The class given is cell-based. The conditions noted are these: Mus musculus, starved 6 h with compound, IL-2 150 U/mL 10 min, phosphorylation of JAK2 by Western blot, read-out: IC50 g (nM) JAK2. The procedure: as §1
The subject of a further assay is phosphorylated STAT5. The description is as above. The conditions noted are these: Mus musculus, starved 6 h with compound, IL-2 150 U/mL 10 min, phosphorylated STAT5 by Western blot, read-out: IC50 g (nM) STAT5. The class given is cell-based. On the procedure:
as §1

The target in the next assay is JAK1 (Homo sapiens, UniProt P23458). Nature of the assay: Caliper Mobility Shift Assay, kinase inhibition. The format is biochemical. The note with it: ATP by Km value.
Sequence of JAK1 (P23458 whole entry, species assumed): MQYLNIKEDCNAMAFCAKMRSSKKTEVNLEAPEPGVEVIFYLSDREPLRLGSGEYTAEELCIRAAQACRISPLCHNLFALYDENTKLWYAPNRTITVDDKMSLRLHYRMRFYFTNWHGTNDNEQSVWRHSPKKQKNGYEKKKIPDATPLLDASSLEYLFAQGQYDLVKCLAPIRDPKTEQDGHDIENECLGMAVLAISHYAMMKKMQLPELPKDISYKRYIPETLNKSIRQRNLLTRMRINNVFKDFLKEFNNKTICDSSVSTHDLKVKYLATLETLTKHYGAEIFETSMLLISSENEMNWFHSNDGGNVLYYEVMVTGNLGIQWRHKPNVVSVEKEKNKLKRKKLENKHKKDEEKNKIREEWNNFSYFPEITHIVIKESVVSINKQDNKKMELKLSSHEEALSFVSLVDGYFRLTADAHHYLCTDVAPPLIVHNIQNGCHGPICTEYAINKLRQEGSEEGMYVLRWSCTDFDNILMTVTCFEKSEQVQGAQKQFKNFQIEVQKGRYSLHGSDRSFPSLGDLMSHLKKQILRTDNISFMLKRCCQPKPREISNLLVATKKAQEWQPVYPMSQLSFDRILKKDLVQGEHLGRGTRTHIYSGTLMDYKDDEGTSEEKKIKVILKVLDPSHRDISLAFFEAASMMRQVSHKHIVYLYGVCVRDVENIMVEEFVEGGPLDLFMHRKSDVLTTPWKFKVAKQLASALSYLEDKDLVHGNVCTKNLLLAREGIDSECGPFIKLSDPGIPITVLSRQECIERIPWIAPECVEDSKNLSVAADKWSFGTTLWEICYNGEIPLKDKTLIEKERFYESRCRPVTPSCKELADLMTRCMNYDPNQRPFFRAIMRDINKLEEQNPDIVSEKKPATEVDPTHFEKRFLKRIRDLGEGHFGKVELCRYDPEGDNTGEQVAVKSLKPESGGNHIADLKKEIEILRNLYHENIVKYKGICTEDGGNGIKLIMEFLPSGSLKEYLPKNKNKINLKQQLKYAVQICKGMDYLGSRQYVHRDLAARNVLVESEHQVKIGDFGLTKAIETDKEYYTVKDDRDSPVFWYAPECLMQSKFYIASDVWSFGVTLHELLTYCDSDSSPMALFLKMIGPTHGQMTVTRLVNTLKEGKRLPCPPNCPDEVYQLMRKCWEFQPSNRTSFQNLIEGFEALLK

Structures are written as SMILES.

Sequence of JAK2 (O60674 whole entry, species assumed): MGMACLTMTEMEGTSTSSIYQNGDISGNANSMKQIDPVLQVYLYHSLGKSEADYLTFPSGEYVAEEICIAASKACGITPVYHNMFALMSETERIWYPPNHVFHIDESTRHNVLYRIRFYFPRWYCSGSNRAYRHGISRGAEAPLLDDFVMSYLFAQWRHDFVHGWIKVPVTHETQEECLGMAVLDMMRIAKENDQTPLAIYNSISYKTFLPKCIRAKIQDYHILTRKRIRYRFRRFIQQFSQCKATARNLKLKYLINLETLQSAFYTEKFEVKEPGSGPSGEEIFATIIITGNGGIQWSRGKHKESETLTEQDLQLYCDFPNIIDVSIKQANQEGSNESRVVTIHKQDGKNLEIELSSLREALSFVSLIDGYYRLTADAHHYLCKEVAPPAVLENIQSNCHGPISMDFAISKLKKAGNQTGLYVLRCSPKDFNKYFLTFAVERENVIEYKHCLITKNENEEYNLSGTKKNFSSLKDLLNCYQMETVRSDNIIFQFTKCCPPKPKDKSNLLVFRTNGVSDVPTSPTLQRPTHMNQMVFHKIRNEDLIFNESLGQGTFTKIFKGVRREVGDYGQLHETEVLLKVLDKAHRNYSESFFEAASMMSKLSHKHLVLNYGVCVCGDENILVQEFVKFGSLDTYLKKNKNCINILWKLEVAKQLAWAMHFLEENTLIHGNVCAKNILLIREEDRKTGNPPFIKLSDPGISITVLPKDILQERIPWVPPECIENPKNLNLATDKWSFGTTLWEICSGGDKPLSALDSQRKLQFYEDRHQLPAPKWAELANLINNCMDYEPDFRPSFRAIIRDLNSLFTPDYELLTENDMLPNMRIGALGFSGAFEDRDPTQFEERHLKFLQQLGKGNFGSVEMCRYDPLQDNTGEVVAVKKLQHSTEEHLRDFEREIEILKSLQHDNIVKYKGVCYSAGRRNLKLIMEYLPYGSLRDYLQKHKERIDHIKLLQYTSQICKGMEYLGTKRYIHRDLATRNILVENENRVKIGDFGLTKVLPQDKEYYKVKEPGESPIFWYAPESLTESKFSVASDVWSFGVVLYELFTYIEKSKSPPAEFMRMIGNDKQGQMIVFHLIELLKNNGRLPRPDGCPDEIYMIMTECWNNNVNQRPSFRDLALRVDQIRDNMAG

Regarding `CCCCS(=O)(=O)N1CC(CC#N)(n2cc(-c3ncnc4[nH]ccc34)c3ccccc32)C1` [Example 6, 2-(3-(3-(7H-pyrrole[2,3-d]pyrimidine-4-yl)-1H-indole-1-yl)-1-(butylsulfonyl)azetidine-3-yl)acetonitrile], the IC50 at JAK2 came to 7.1 nM; in the assay on Jurkat cells, 458 nM; at JAK3 it was 200 nM; in the assay on phosphorylated JAK1, 22 nM; with phosphorylation of JAK2 it was 8 nM; in the assay with phosphorylated STAT5 it was 322 nM. For the same compound, the IC50 at JAK1 amounted to 22 nM. For the same compound, the Score of arthritis in assay [1] turned out to be 2.3.
`CCS(=O)(=O)N1CC(CC#N)(n2cc(-c3ncnc4[nH]ccc34)cn2)C1` [Baricitinib, reference compound] showed a Score of arthritis in assay [1] of 2.4.
`CCS(=O)(=O)N1CC(CC#N)(n2cc(-c3ncnc4[nH]ccc34)c3ccc(F)cc32)C1` [Example 20, 2-(1-(ethylsulfonyl)-3-(6-fluoro-3-(7H-pyrrole[2,3-d]pyrimidine-4-yl)-1H-indole-1-yl)azetidine-3-yl)acetonitrile]: the IC50 was 0.61 nM at JAK2; 225 nM with Jurkat cells; 28 nM at JAK3; 18.5 nM with phosphorylated JAK1; 15.2 nM with phosphorylation of JAK2; 309 nM with phosphorylated STAT5. Moreover, the IC50 at JAK1 amounted to 0.5 nM. The compound also showed a Score of arthritis in assay [1] of 1.6.
Turning to `CS(=O)(=O)N1CC(CC#N)(n2cc(-c3ncnc4[nH]ccc34)c3ccccc32)C1` [Example 2, 2-(3-(3-(7H-pyrrole[2,3-d]pyrimidine-4-yl)-1H-indole-1-yl)-1-(methylsulfonyl)azetidine-3-yl)acetonitrile], the concentration for half-maximal inhibition (IC50) worked out at 0.9 nM at JAK2; 128 nM on JAK3; 5.4 nM in the assay with phosphorylation of JAK2; 146 nM in the assay with phosphorylated STAT5; 8 nM on JAK1.
Regarding `CN(C)S(=O)(=O)N1CC(CC#N)(n2cc(-c3ncnc4[nH]ccc34)c3ccccc32)C1` [Example 7], the IC50 at JAK2 is 1.5 nM; in the assay with Jurkat cells, 123 nM; at JAK3, 116 nM; with phosphorylated JAK1, 45 nM; in the assay with phosphorylation of JAK2, 9.6 nM; with phosphorylated STAT5, 214 nM. In addition, the concentration for half-maximal inhibition (IC50) at JAK1 is 15 nM. The compound also returned a Score of arthritis in assay [1] of 2.5.
For `CCS(=O)(=O)N1CC(CC#N)(n2cc(-c3ncnc4[nH]ccc34)c3cc(C(F)(F)F)ccc32)C1` [Example 63, 2-(1-(ethylsulfonyl)-3-(5-trifluoromethyl-3-(7H-pyrrole[2,3-d]pyrimidine-4-yl)-1H-indole-1-yl)azetidine-3-yl)acetonitrile], the IC50 on JAK2 came to 2.4 nM; on JAK3, 232 nM; in the assay on phosphorylated JAK1, 75.2 nM; in the assay with phosphorylation of JAK2 it was 38.3 nM; with phosphorylated STAT5, 196 nM; on JAK1 it was 7.9 nM.
As for `CC(C)S(=O)(=O)N1CC(CC#N)(n2cc(-c3ncnc4[nH]ccc34)c3ccc(Cl)cc32)C1` [Example 28, 2-(1-(isopropylsulfonyl)-3-(6-chloro-3-(7H-pyrrole[2,3-d]pyrimidine-4-yl)-1H-indole-1-yl)azetidine-3-yl)acetonitrile], the values for the IC50 on JAK2, on JAK3 and at JAK1 were 2.4 nM, 64 nM and 6.5 nM, respectively.
With `CCS(=O)(=O)N1CC(CC#N)(n2cc(-c3ncnc4[nH]ccc34)c3cc(OC)ccc32)C1` [Example 64, 2-(1-(ethylsulfonyl)-3-(5-methoxyl-3-(7H-pyrrole[2,3-d]pyrimidine-4-yl)-1H-indole-1-yl)azetidine-3-yl)acetonitrile], the half-inhibitory concentration (IC50) was 2.9 nM at JAK2; 136 nM in the assay with Jurkat cells; 262 nM on JAK3; 42.9 nM with phosphorylated JAK1; 28.7 nM with phosphorylation of JAK2; 201 nM with phosphorylated STAT5. Also, the IC50 at JAK1 is 23 nM. This compound gave a Score of arthritis in assay [1] of 2.3.
Regarding `CCS(=O)(=O)N1CC(CC#N)(n2cc(-c3ncnc4[nH]ccc34)c3ccccc32)C1` [Example 1, 2-(3-(3-(7H-pyrrole[2,3-d]pyrimidine-4-yl)-1H-indole-1-yl)-1-(ethylsulfonyl)azetidine-3-yl)acetonitrile], the IC50 was 1.1 nM at JAK2; 100 nM at JAK3; 26.3 nM in the assay on phosphorylated JAK1; 18.4 nM in the assay on phosphorylation of JAK2; 125 nM in the assay with phosphorylated STAT5; 11 nM on JAK1.
On to `CCS(=O)(=O)N1CC(CC#N)(n2cc(-c3ncnc4[nH]ccc34)c3cc(F)ccc32)C1` [Example 62, 2-(1-(ethylsulfonyl)-3-(5-fluoro-3-(7H-pyrrole[2,3-d]pyrimidine-4-yl)-1H-indole-1-yl)azetidine-3-yl)acetonitrile], for which the IC50 was 1 nM at JAK2; 30 nM on JAK3; 33.9 nM in the assay on phosphorylated JAK1; 29.9 nM in the assay on phosphorylation of JAK2; 130 nM with phosphorylated STAT5; 3.6 nM at JAK1.
In the case of `N#CCC1(n2cc(-c3ncnc4[nH]ccc34)c3ccccc32)CN(C(=O)[C@@H]2CCCN2)C1` (stereo in doubt) [Example 11, 2-(3-(3-(7H-pyrrole[2,3-d]pyrimidine-4-yl)-1H-indole-1-yl)-1-(pyrrolidine-2-carbonyl)azetidine-3-yl)acetonitrile], the IC50 at JAK2 worked out at 692 nM; on JAK3, 521 nM; with phosphorylated JAK1, 30 nM; in the assay with phosphorylation of JAK2, 192 nM; in the assay on phosphorylated STAT5 it was 692 nM; on JAK1, 300 nM.
As to `CCCS(=O)(=O)N1CC(CC#N)(n2cc(-c3ncnc4[nH]ccc34)c3c(F)cc(F)cc32)C1` [Example 43, 2-(1-(propylsulfonyl)-3-(6,8-difluoro-3-(7H-pyrrole[2,3-d]pyrimidine-4-yl)-1H-indole-1-yl)azetidine-3-yl)acetonitrile], the half-inhibitory concentration (IC50) on JAK2 is 28.4 nM; on JAK3, 67 nM; on JAK1 it was 13.3 nM.

As usually defined, the IC50 is the concentration that gives 50% inhibition.
